Test results published in patent US20080107619A1, “Carbohydrate based cellulase inhibitors as feeding stimulants in termites” (University of Florida Research Foundation, Inc., priority 2006, published 2008).

How the values were obtained:
[1] = target: T1, 6A cellobiohydrolase (exoglucanase) (Trichoderma reesei, UniProt P07987); conditions: non-competitive inhibition; Vonhoff et al.; read-out: I50; cited from earlier work
T1 sequence (P07987 25-471): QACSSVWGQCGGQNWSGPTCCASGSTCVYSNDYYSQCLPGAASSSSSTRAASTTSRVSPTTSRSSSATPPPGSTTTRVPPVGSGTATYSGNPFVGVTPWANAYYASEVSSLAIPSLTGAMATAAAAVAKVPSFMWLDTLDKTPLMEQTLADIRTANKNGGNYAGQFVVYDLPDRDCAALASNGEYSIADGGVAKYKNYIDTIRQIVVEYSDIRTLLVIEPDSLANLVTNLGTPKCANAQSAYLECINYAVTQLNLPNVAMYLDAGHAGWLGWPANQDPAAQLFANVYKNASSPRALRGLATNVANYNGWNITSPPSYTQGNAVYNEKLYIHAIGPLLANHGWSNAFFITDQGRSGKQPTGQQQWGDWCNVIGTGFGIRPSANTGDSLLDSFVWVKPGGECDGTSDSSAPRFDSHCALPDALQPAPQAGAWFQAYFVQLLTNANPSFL

β-glucosidase = assay: Post-feeding inhibition of β-glucosidase activity in whole-body homogenates; type: in vivo, R. flavipes; conditions: after 24 days feeding at 25 mM and above
Description: (§1) Whole body homogenates were used for optimization and post-feeding inhibition studies. Here, 10-15 termite workers were homogenized in 1 to 1.5 ml ice-cold homogenization buffer with a Teflon-glass (Potter-Elvehjem) homogenizer powered by a motorized electric stirrer (Fisher Scientific). After homogenization, both gut region and whole-body preparations were centrifuged at 15,000× g and 4° C. for 15 min. The resulting supernatants from the different gut regions were used directly for subsequent enzyme assays. Supernatants from whole-body homogenates were passed through glass wool to remove excess lipids before proceeding with cellulase activity assays.
(§2) Cellulase activity assays were adapted from Han et al. in “Characterization of a bifunctional cellulase and its structural gene,” J. Biol. Chem. 270 (1995) 26012-26019, with optimization for a 96-well microplate format. […] Color was allowed to develop on ice for 15 min before measuring absorbance at 540 nm relative to a glucose standard curve.
(§3) The hydrolysis product of both the pNPC and pNPG substrates is p-nitrophenol, which is yellow in color and permits for direct quantification of activity in a kinetic assay. pNPC and pNPG assays were initially incubated at 32° C. for 20 min before measuring the release of the product, p-nitrophenol, at 420 nm. […]

Cel5A enzyme = target: T2, Cel5A enzyme (Salipaludibacillus agaradhaerens, UniProt O85465); conditions: Varrott et al.; read-out: I50 value; cited from earlier work
T2 sequence (O85465 27-400): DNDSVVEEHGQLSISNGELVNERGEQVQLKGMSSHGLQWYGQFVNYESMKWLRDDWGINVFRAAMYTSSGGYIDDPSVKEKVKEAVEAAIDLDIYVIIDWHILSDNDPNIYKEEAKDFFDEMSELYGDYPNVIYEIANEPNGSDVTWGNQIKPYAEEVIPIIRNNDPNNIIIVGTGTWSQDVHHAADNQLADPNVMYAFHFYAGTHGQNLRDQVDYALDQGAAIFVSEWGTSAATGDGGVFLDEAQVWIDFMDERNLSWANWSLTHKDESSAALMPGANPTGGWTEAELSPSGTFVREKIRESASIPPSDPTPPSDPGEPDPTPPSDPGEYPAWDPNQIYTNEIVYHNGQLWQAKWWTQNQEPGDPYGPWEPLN

exoglucanase = assay: Post-feeding inhibition of exoglucanase activity in whole-body homogenates; type: in vivo, R. flavipes; conditions: after 24 days feeding at 5 mM and above
Description: as §1, §2, §3

SMILES: OC[C@@H]1[C@@H](O[C@@H]2O[C@H](CO)[C@@H](O)[C@H](O)[C@H]2O)[C@H](O)[C@@H](O)c2nccn21 [CBI, cellobioimidazole]
- IC50 [1]: 1 µM
- β-glucosidase activity, maximal reduction relative to controls (β-glucosidase): ~90%
- IC50 (Cel5A enzyme): 88 µM
- Exoglucanase activity, maximal reduction relative to controls (exoglucanase): ~75%
